Laboratory results as given in patent US12528761B2, “Thyromimetics” (Autobahn Therapeutics, Inc., priority 2020, dated 2026).
Each block holds one molecule with its values, some of them ahead of it.

Legend:
[1] = target: T1, recombinant human FAAH (rhFAAH) (Homo sapiens, UniProt O00519); assay: FAAH substrate evaluation (formation of acid metabolite, LC-MS/MS); assay type: biochemical; parameters: key: A: ke is equal to or less than 1.0; B: ke is greater than 1.0 and less than or equal to 2.5; C: ke is greater than 2.5; NC: no conversion; conditions: 0.5 ng/μL rhFAAH, 1 μM test compound, pH 8.0, room temperature, 0-60 minutes
T1 construct: purchased Cayman Chemical (Ann Arbor, MI, USA)
T1 sequence (O00519 1-579): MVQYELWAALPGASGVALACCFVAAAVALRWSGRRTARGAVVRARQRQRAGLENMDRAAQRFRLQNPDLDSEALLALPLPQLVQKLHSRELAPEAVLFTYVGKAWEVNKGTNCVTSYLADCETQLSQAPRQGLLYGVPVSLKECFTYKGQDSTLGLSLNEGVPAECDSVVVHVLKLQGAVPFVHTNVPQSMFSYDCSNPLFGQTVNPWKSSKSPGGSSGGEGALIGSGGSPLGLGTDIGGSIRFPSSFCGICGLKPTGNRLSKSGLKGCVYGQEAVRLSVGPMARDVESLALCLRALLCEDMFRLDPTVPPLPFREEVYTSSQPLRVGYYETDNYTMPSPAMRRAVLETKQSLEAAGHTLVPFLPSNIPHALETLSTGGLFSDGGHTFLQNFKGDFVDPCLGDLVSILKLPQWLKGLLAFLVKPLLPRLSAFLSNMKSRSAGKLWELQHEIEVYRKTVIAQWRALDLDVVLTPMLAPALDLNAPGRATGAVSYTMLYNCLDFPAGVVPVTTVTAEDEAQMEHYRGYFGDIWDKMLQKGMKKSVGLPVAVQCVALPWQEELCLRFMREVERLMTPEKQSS
Summary of the method: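 Test compound at 1 μM incubated at room temperature with 0.5 ng/μL rhFAAH, 0.1% BSA in Tris-EDTA pH 8.0; parallel incubations with 1 μM PF-3845 inhibitor. Samples quenched at 0-60 min; acid metabolite quantified by LC-MS/MS, ke taken as slope of metabolite concentration versus time.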

TRβ = target: T2, TRβ (Homo sapiens, UniProt P10828); assay: TR reporter-gene assay (Gal4 DBD hybrid, luciferase), TRβ; assay type: cell-based; conditions: for EC50: HEK293-derived reporter cells, 24 hr treatment, read-out: TRβ EC50; for T3-SI (selectivity index, EC50 (TRα)/EC50 (TRβ)): class symbols
T2 construct: expressed in transfected cells; host or cells: HEK293
T2 sequence (P10828 217-461 limits assumed): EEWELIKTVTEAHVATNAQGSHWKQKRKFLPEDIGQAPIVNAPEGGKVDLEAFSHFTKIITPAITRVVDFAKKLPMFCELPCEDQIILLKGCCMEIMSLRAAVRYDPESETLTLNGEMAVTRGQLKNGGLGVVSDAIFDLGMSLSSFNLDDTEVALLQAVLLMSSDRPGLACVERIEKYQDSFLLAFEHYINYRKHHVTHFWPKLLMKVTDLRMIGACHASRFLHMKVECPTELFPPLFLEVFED
Summary of the method: (§1)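 HEK293 reporter cells expressing Gal4-DBD/TR ligand-binding hybrids driving firefly luciferase from a Gal4 UAS; cells pre-incubated 6 h, then treated 24 h at 37 °C in medium with 10% charcoal-stripped FBS (final DMSO 0.1–0.4%), in duplicate. Read-out was luminescence (RLU).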

TRα = target: T3, TRα (Homo sapiens, UniProt P10827); assay: TR reporter-gene assay (Gal4 DBD hybrid, luciferase), TRα; assay type: cell-based; conditions: HEK293-derived reporter cells, 24 hr treatment; read-out: TRα EC50
T3 construct: expressed in transfected cells; host or cells: HEK293
T3 sequence (P10827 1-410 isoform P10827-2): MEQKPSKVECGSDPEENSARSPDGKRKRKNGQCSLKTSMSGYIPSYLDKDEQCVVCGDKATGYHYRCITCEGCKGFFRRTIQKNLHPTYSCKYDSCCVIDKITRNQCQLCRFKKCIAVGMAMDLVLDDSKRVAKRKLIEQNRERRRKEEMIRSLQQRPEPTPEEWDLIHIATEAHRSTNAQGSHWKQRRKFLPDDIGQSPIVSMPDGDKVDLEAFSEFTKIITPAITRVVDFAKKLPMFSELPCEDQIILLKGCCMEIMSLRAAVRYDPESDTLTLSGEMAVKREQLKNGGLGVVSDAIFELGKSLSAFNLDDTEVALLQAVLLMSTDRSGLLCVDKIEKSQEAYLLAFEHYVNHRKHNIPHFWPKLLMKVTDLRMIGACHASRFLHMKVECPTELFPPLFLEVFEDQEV
Summary of the method: as §1

[2] = Brain levels of parent acid after dosing prodrug (FIG. 1); assay type: in vivo; conditions: compared with dosing Compound 15 itself
Text: The acid compounds of the present invention (R^1=—OR^1c and R^1c=H) are active agonists selectively activating the TRβ receptor. The amide compounds of the present invention (R^1=—NR^1aR^1b) may act as substrates for the specific hydrolase enzyme fatty acid-amide hydrolase (FAAH), which cleaves the amide, liberating the thyromimetic. Thus, prodrug conversion to drug is enhanced in tissues that express high levels of FAAH such as the central nervous system. […] The ester compounds of the present invention (R^1=—OR^1c and R^1c≠H) are also prodrugs, typically processed through the action of esterases which may exist selectively in specific tissues.

- ke, observed rate constant for the acid metabolite formation [1]: A (ke is equal to or less than 1.0)
- EC50 (TRβ): 100 to 1000 nM
- T3-SI (selectivity index, EC50 (TRα)/EC50 (TRβ)) (TRβ): ++ (3× < T3-SI ≤ 30×)
- EC50 (TRα): > 1000 nM
Compound: CONC(=O)Cc1cc(Cl)c(Cc2ccc(O)c(C(C)C)c2F)c(Cl)c1 [Compound 208, 2-(3,5-dichloro-4-(2-fluoro-4-hydroxy-3-isopropylbenzyl)phenyl)-N-methoxyacetamide]

- ke, observed rate constant for the acid metabolite formation [1]: C (ke is greater than 2.5)
- EC50 (TRβ): > 1000 nM
- T3-SI (selectivity index, EC50 (TRα)/EC50 (TRβ)) (TRβ): ++ (3× < T3-SI ≤ 30×)
- EC50 (TRα): > 1000 nM
Compound: CNC(=O)CSCc1cc(C)c(Cc2ccc(O)c(C(C)C)c2)c(Cl)c1F [Compound 217, 2-((3-chloro-2-fluoro-4-(4-hydroxy-3-isopropylbenzyl)-5-methylbenzyl)thio)-N-methylacetamide]

- ke, observed rate constant for the acid metabolite formation [1]: C (ke is greater than 2.5)
Compound: CC(C)c1cc(Cc2c(Cl)cc(SCC(=O)Nc3ccncc3)cc2Cl)ccc1O [Compound 172, 2-((3,5-dichloro-4-(4-hydroxy-3-isopropylbenzyl)phenyl)thio)-N-(pyridin-4-yl)acetamide]

- ke, observed rate constant for the acid metabolite formation [1]: A (ke is equal to or less than 1.0)
Compound: CNC(=O)CNc1cc(Cl)c(Cc2ccc(O)c(C(C)C)c2F)c(C)c1F [Compound 136, 2-((5-chloro-2-fluoro-4-(2-fluoro-4-hydroxy-3-isopropylbenzyl)-3-methylphenyl)amino)-N-methylacetamide]

- ke, observed rate constant for the acid metabolite formation [1]: C (ke is greater than 2.5)
Compound: CC(C)c1cc(Cc2c(Cl)cc(SCC(N)=O)cc2Cl)ccc1O [Compound 179, 2-((3,5-dichloro-4-(4-hydroxy-3-isopropylbenzyl)phenyl)thio)acetamide]

- ke, observed rate constant for the acid metabolite formation [1]: NC
Compound: CC(C)c1cc(Cc2c(Cl)cc(SCC(=O)N(C)C)cc2Cl)ccc1O [Compound 194, 2-((3,5-dichloro-4-(4-hydroxy-3-isopropylbenzyl)phenyl)thio)-N,N-dimethylacetamide]

- ke, observed rate constant for the acid metabolite formation [1]: A (ke is equal to or less than 1.0)
Compound: CC(C)c1cc(Cc2c(Cl)cc(SCC(=O)NCC3CC3)cc2Cl)ccc1O [Compound 181, N-(cyclopropylmethyl)-2-((3,5-dichloro-4-(4-hydroxy-3-isopropylbenzyl)phenyl)thio)acetamide]

- ke, observed rate constant for the acid metabolite formation [1]: NC
Compound: CC(C)c1cc(Cc2c(Cl)cc(SCC(=O)NC34CC(C3)C4)cc2Cl)ccc1O [Compound 178, N-(bicyclo[1.1.1]pentan-1-yl)-2-((3,5-dichloro-4-(4-hydroxy-3-isopropylbenzyl)phenyl)thio)acetamide]

- ke, observed rate constant for the acid metabolite formation [1]: C (ke is greater than 2.5)
Compound: CC(C)c1cc(Cc2c(Cl)cc(SCC(=O)NC3CC3)cc2Cl)ccc1O [Compound 180, N-cyclopropyl-2-((3,5-dichloro-4-(4-hydroxy-3-isopropylbenzyl)phenyl)thio)acetamide]

The remaining lines, values behind:

Compound: CC(C)c1cc(Cc2c(Cl)cc(CCCC(=O)O)cc2Cl)ccc1O [Compound 16, 4-(3,5-dichloro-4-(4-hydroxy-3-isopropylbenzyl)phenyl)butanoic acid]
- brain levels of the parent acid Compound 15 [2]: markedly higher brain levels
- EC50 (TRβ): 100 to 1000 nM
- T3-SI (selectivity index, EC50 (TRα)/EC50 (TRβ)) (TRβ): +++ (T3-SI > 30×)
- EC50 (TRα): > 1000 nM

Compound: CON(C)C(=O)Cc1cc(Cl)c(Cc2ccc(O)c(C(C)C)c2F)c(Cl)c1 [Compound 105, 2-(3,5-dichloro-4-(2-fluoro-4-hydroxy-3-isopropylbenzyl)phenyl)-N-methoxy-N-methylacetamide]
- ke, observed rate constant for the acid metabolite formation [1]: NC
- EC50 (TRβ): > 1000 nM

Compound: COC(=O)CCc1cc(Cl)c(Cc2ccc(O)c(C(C)c3ccc(F)cc3)c2F)c(Cl)c1 (stereo not drawn) [Compound 17, methyl 3-(3,5-dichloro-4-(2-fluoro-3-(1-(4-fluorophenyl)ethyl)-4-hydroxybenzyl)phenyl)propanoate]
- brain levels of the parent acid Compound 15 [2]: markedly higher brain levels

Compound: CNC(=O)CCc1cc(Cl)c(Cc2ccc(O)c(C(C)C)c2F)c(Cl)c1F [Compound 72, 3-(3,5-dichloro-2-fluoro-4-(2-fluoro-4-hydroxy-3-isopropylbenzyl)phenyl)-N-methylpropanamide]
- ke, observed rate constant for the acid metabolite formation [1]: A (ke is equal to or less than 1.0)

Compound: CNC(=O)CNc1cc(Cl)c(Cc2ccc(O)c(C(C)C)c2)c(Cl)c1F [Compound 76, 2-((3,5-dichloro-2-fluoro-4-(4-hydroxy-3-isopropylbenzyl)phenyl)amino)-N-methylacetamide]
- ke, observed rate constant for the acid metabolite formation [1]: A (ke is equal to or less than 1.0)

Compound: COc1ccc(NC(=O)CNc2cc(Cl)c(Cc3ccc(O)c(C(C)C)c3F)c(Cl)c2F)nn1 [Compound 159, 2-((3,5-dichloro-2-fluoro-4-(2-fluoro-4-hydroxy-3-isopropylbenzyl)phenyl)amino)-N-(6-methoxypyridazin-3-yl)acetamide]
- ke, observed rate constant for the acid metabolite formation [1]: B (ke is greater than 1.0 and less than or equal to 2.5)

Compound: CC(C)c1cc(Cc2c(Cl)cc(SCC(=O)Nc3cnccn3)cc2Cl)ccc1O [Compound 171, 2-((3,5-dichloro-4-(4-hydroxy-3-isopropylbenzyl)phenyl)thio)-N-(pyrazin-2-yl)acetamide]
- ke, observed rate constant for the acid metabolite formation [1]: B (ke is greater than 1.0 and less than or equal to 2.5)

Compound: Cc1cc(CSCC(=O)Nc2cccnn2)cc(Cl)c1Cc1ccc(O)c(C(C)C)c1 [Compound 230, 2-((3-chloro-4-(4-hydroxy-3-isopropylbenzyl)-5-methylbenzyl)thio)-N-(pyridazin-3-yl)acetamide]
- ke, observed rate constant for the acid metabolite formation [1]: B (ke is greater than 1.0 and less than or equal to 2.5)
